# What was measured:
# [1] = system: eyes of myopic human subjects; test: Mild myopia study, group III: corrective lenses and 3% glyceraldehyde without hyaluronidase (Example 9); format: in vivo; details: for UVA at follow-up after end of treatment: no hyaluronidase
# From the text: (§1) Given the favorable results obtained in Example 8, an additional study was undertaken to test the safety and efficacy of the method of the present invention using a larger group of subjects. In this study, a group of subjects were selected and randomly separated into three test groups to test the safety and efficacy of using hyaluronidase and a glyceraldehyde solution for treating subjects with sub-optimal visual acuity. Groups one and two received an intrastromal injection of hyaluronidase (50 and 500 IU, respectively), while group three received a control injection of saline.
# (§2) Following a two week incubation period after the injection, the three groups were fitted with corrective lenses to optimize the visual acuity of the subjects. The corrective lenses were left in place for a period of time sufficient to alter the shape of the subjects' eyes so as to achieve an optimal visual acuity. This period of time was generally 2 days in length. Once an acceptable visual acuity was achieved, the subjects in the three groups received a topical 3% glyceraldehyde solution in the form of ophthalmic drops four times per day while wearing the corrective lenses. The glyceraldehyde treatment was generally administered for one month. Lens wear occurred from 8 to 12 hours during the day.
# (§3) At the end of the treatment period both the lens wear and the glyceraldehyde solution administration was terminated. The general health and visual acuity of the subjects was monitored from 3 to 5 months following treatment termination.
# As with groups I and II, the test subjects were examined initially to establish a baseline from which the future results of the treatment were compared. Following the establishment of a baseline reading, group III subjects were fitted with contact lenses and wore the corrective lenses at night for a period of two (2) to seven (7) days or until an acceptable visual acuity (approximately 20/20) was achieved. Unlike groups I and II, group III test subjects in this group received no injection of hyaluronidase during the course of treatment. Subjects achieving an acceptable visual acuity received the topical 3% glyceraldehyde solution in the form of ophthalmic drops four times per day (08:00, 12:00, 16:00, and 20:00) for a period of 1 month in conjunction with daytime lens wear for stabilization. During this period, lens wear occurred for approximately 8-12 hours per day and there was no nocturnal lens wear.
# The subjects were examined periodically during the glyceraldehyde treatment to monitor changes in the health of the treated eyes.
# (§4) At the end of the treatment period, the stabilizing lens were removed and the administration of the 3% glyceraldehyde solution was terminated. Following termination of the treatment, the subjects were examined immediately after treatment was terminated, once a week for the first four weeks after termination, and then monthly to measure changes in the visual acuity of the treated eyes. The health of the eye was also monitored. Sequelae characterized by the appearance or worsening of serious ocular symptoms or slit-lamp findings observed during these examinations was assessed. The proportions of subjects with such findings were analyzed.
# The visual acuity values shown are obtained using the Snellen letters test and the Early Treatment Diabetic Retinopathy Study (ETDRS) protocol. The table values shown are the better values as compared between the results of the two methods. The subjects' baseline visual acuity ranged from 20/80 to 20/300.
# [2] = system: cornea; test: Corneal elasticity, recovery from indentation by spherical glass indentor (Example 7); format: in vivo, human
# Procedure: A precision spherical glass indentor was used to contact the corneal surface of subjects treated with the methods of the present invention to measure changes in corneal elasticity. The method used involved the application of the indentor, in the form of a small spherical ball to gently deflect into a test cornea to establish an initial deflection value. Measurements were taken by using an interferometer to view the deflection. Following this application, the relaxation period was measured by observing the change in the impression made by the indentor.
# The indentation range of movement was characterized using a precision linear variable differential transducer (LVDT) device that measured the linear travel of a stage carrying the indentor probe. The average travel distance of the probe was established at approximately 700 micrometers. The contact depth of the indentor probe was measured by evaluating the corneal surface immediately after indentation and measuring the local height values caused by the probe contact. This value was measured to range from 266 to 300 micrometers.
# A digital timer was used to mark the beginning and ending times during observation. Changes in the impression were readily observed during this period. The final end point was considered to be when the local fringe disturbance was recovered blending with the undisturbed neighboring fringes. […] However, given the time scales involved, the value of this error is considered to be small.
# The method of inducing corneal inflection involved first contacting the test corneal with the indentor. After the initial contact with the cornea was established, the probe was moved forward into the cornea to a predetermined distance. Seven hundred microns was used to achieve adequate deflection. Topography was taken immediately after the deflection to record the impression made in the cornea. Observations of the cornea were then made at one (1) minute intervals to note the change in the impression made. […] Another topography was done after five (5) minutes to record the final condition of the impression. […]
# [3] = system: eyes of myopic human subjects; test: Mild myopia study, group I: 50 IU hyaluronidase, corrective lenses, 3% glyceraldehyde (Example 9); format: in vivo
# From the text: as §1, §2, §3
# Before beginning the experimental protocol, test subjects were examined initially to establish a baseline from which the future results of the treatment were compared. For each subject a medical history was taken and a detailed examination of the eyes was also performed. The eyes of each subject were tested to determine: refraction cell count, intraocular pressure (IOP), pachymetry, corneal topography and corneal elasticity. A slit-lamp examination was also performed to establish the health of the eye. Also, the presence of any general or ocular discomfort of the subjects was noted.
# Following the establishment of a baseline reading, group 1 subjects were administered a single intrastromal injection of 50 IU hyaluronidase prior to the orthokeratology treatment. Following 14 days of incubation, the subjects were fitted with corrective contact lenses for overnight wear. Subjects wore the corrective lenses night and day for a period of two (2) to seven (7) days or until visual 20/20 visual acuity was achieved. Subjects achieving an acceptable visual acuity (approximately 20/20) received an application of the topical 3% glyceraldehyde solution ophthalmic drops four times per day (8:00, 12:00, 16:00, and 20:00) for a period of 1 month in conjunction with daytime lens wear for stabilization. Lens wear lasted for 8 to 12 hours per day. The subjects were examined periodically during the glyceraldehyde treatment to monitor changes in the health of the treated eyes.
# as §4
structure (smiles),measurement,setting,value
O=CC(O)CO (centres unmarked) [glyceraldehyde],overall effect on retention of orthokeratology benefits,[1]; glyceraldehyde treatment in the absence of hyaluronidase,effective in extending the retention time
same,UVA at follow-up after end of treatment,"[1]; subject 005, four month time point, baseline 20/100",20/100
same,UVA at follow-up after end of treatment,"[1]; subject 006, five month time point, baseline 20/200",20/100
same,UVA at follow-up after end of treatment,"[1]; subject 012, four month time point, baseline 20/200",20/100
same,UVA at follow-up after end of treatment,"[1]; subject 014, three month time point, baseline 20/80",20/50
same,UVA at follow-up after end of treatment,"[1]; subject 016, four month time point, baseline 20/300",20/80
same,UVA at follow-up after end of treatment,"[1]; subject 016, three month point, baseline 20/300",20/60
same,UVA at follow-up after end of treatment,"[1]; subject 021, two month time point, baseline 20/80",20/60
same,UVA at follow-up after end of treatment,"[1]; subject 032, two month time point, baseline 20/120",20/60
same,time for cornea to recover from indentation,[2]; after about two weeks of glyceraldehyde solution drops,20 to 30 s
same,change in corneal elasticity after treatment,"[2]; glyceraldehyde solution drops, from more rapid indentation recovery",more elastic
same,overall effect on correction of visual acuity,[3]; glyceraldehyde treatment with injection of 50 IU of hyaluronidase,effective in facilitating the correction
same,visual acuity at follow-up after end of treatment,"[3]; subject 001, 5-month follow up, baseline 20/80",20/40
same,visual acuity at follow-up after end of treatment,"[3]; subject 002, 4-month follow-up, baseline 20/300",20/125
same,visual acuity at follow-up after end of treatment,"[3]; subject 007, 3-month follow-up, baseline 20/200",20/50
same,visual acuity at follow-up after end of treatment,"[3]; subject 009, 3-month follow-up, baseline 20/200",20/63
same,visual acuity at follow-up,"[3]; subject 010R, time not stated, baseline 20/80",20/20
same,visual acuity at follow-up after end of treatment,"[3]; subject 015, 3-month follow-up, baseline 20/80",20/25
same,visual acuity at follow-up,"[3]; subject 022R, 3-week followup, baseline 20/62",20/80
same,visual acuity at follow-up,"[3]; subject 024R, time not stated, baseline 20/100",20/40
same,visual acuity at follow-up,"[3]; subject 028, 2-month point, baseline 20/300",20/125
same,visual acuity at follow-up,"[3]; subject 029, 2-month point, baseline 20/200",20/40
same,visual acuity at follow-up,"[3]; subject 033, 2-month point, baseline 20/300",20/125

# From US6537545B1, “Use of corneal hardening agents in enzymeorthokeratology” (ISTA Pharmaceuticals, Inc., priority 1998, dated 2003)
